For one test, the target named is D(1A) dopamine receptor (Rattus norvegicus, UniProt P18901). The experiment in a line: Inhibitory activity against [3H]SCH-23390 binding to Dopamine receptor D1 in rat striatum. It is filed as tissue-based.
For another test, the target named is Glutamate NMDA receptor. Kind of test: Inhibitory activity against [3H]TCP binding to Phencyclidine receptor in rat cortex.
The species entered for test [1] is Rattus norvegicus. Kind of test: Inhibitory activity against [3H]dopamine uptake in rat striatum. In kind it is functional.
Test [2] has as its target T1, Muscarinic acetylcholine receptor M1 (Rattus norvegicus, UniProt P08482).
T1 sequence (P08482 whole entry): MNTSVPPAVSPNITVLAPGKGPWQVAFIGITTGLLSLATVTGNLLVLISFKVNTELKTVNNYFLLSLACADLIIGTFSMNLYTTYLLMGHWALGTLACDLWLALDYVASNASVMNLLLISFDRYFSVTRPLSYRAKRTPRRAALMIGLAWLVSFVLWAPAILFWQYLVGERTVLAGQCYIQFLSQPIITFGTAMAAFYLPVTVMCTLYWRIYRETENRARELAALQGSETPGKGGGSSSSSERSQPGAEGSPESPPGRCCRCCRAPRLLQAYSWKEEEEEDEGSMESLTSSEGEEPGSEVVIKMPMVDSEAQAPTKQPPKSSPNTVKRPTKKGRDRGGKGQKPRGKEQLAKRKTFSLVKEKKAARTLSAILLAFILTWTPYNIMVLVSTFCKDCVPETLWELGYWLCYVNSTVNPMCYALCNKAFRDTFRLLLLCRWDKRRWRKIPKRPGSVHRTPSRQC
The experiment in a line: Inhibitory activity against [3H]pirenzepine binding to muscarinic M1 receptor in rat cortex.

Test [3] deals with T2, Muscarinic acetylcholine receptor M2 (Rattus norvegicus, UniProt P10980).
T2 sequence (P10980 whole entry): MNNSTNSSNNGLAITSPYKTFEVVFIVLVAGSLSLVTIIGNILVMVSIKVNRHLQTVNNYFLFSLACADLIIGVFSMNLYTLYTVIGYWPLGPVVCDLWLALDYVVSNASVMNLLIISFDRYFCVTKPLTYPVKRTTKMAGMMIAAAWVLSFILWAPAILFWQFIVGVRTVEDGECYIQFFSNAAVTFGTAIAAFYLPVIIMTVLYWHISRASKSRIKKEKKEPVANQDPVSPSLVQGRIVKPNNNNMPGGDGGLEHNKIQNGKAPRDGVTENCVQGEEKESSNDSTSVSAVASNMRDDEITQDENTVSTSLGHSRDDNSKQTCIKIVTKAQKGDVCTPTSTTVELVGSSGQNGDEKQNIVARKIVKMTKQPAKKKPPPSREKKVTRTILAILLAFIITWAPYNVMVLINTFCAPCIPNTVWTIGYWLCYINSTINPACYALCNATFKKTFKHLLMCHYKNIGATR
The experiment in a line: Inhibitory activity against [3H]N-methyl-scopolamine binding to Muscarinic acetylcholine receptor M2 in rat cerebellum. It is filed as tissue-based.

Test [4] concerns the target Serotonin 2 (5-HT2) receptor (Rattus norvegicus, UniProt P30994+P08909+P14842). The experiment in a line: Inhibitory activity against [3H]spiroperidol binding to 5-HT2 receptor in rat cortex.
For test [5], the species on record is Rattus norvegicus. The experiment in a line: Inhibitory activity against [3H]norepinephrine (NE) uptake in rat hypothalamus. It is filed as functional.
Test [6] deals with Voltage-dependent L-type calcium channel subunit alpha-1C (Rattus norvegicus, UniProt P22002). Kind of test: Inhibition of [3H]nitrendipine binding to [Ca2+] channel of rat heart.
Test [7] has as its target T2, Muscarinic acetylcholine receptor M2. Kind of test: Inhibitory activity against [3H]N-methyl-scopolamine in rat Muscarinic acetylcholine receptor M2 cerebellum in the presence GPP(NH)P. In kind it is tissue-based.
For test [8], the species on record is Rattus norvegicus. Kind of test: Inhibitory activity against [3H]5-HT uptake in rat whole brain. In kind it is functional.
The target in test [9] is 5-hydroxytryptamine receptor 1B (Rattus norvegicus, UniProt P28564). The experiment in a line: Inhibitory activity against [3H]5-HT binding to 5-HT1B receptor in rat striatum. In kind it is tissue-based.
Test [10] deals with T3, 5-hydroxytryptamine receptor 1A (Rattus norvegicus, UniProt P19327).
T3 sequence (P19327 whole entry): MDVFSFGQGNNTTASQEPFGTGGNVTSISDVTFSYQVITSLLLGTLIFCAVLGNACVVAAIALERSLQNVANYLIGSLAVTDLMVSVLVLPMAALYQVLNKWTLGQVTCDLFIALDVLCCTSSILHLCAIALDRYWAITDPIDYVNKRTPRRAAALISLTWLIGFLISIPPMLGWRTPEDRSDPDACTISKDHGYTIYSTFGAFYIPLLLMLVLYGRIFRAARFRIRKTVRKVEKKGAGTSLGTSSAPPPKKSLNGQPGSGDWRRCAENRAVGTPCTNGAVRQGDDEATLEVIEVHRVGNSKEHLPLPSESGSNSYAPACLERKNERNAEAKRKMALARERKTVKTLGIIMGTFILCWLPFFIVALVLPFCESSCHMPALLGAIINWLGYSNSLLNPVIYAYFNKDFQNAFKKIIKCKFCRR
The experiment in a line: Inhibitory activity against [3H]DPAT binding to 5-HT1A receptor in rat hippocampus. In kind it is tissue-based.

Test [11] is filed under the species Rattus norvegicus. The experiment in a line: Inhibitory activity against [3H]norepinephrine (NE) uptake in rat whole brain. It is filed as functional.
The target in test [12] is Kappa-type opioid receptor (Cavia porcellus, UniProt P41144). Kind of test: Inhibitory activity against [3H]bremazocine binding to kappa opioid receptor in guinea pig cerebellum. It is filed as tissue-based.
Sequence of Kappa-type opioid receptor (P41144 whole entry): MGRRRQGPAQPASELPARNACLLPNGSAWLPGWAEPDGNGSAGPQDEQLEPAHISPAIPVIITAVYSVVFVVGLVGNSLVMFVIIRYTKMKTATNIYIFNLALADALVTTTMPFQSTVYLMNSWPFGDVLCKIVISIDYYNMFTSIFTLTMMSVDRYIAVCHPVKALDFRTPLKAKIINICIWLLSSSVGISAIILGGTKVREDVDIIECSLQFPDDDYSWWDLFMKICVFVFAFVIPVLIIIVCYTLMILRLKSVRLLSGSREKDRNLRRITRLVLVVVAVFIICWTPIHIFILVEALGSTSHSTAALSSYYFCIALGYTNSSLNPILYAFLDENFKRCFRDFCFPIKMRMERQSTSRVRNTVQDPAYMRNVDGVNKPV

Sequence of Voltage-dependent L-type calcium channel subunit alpha-1C (P22002 whole entry): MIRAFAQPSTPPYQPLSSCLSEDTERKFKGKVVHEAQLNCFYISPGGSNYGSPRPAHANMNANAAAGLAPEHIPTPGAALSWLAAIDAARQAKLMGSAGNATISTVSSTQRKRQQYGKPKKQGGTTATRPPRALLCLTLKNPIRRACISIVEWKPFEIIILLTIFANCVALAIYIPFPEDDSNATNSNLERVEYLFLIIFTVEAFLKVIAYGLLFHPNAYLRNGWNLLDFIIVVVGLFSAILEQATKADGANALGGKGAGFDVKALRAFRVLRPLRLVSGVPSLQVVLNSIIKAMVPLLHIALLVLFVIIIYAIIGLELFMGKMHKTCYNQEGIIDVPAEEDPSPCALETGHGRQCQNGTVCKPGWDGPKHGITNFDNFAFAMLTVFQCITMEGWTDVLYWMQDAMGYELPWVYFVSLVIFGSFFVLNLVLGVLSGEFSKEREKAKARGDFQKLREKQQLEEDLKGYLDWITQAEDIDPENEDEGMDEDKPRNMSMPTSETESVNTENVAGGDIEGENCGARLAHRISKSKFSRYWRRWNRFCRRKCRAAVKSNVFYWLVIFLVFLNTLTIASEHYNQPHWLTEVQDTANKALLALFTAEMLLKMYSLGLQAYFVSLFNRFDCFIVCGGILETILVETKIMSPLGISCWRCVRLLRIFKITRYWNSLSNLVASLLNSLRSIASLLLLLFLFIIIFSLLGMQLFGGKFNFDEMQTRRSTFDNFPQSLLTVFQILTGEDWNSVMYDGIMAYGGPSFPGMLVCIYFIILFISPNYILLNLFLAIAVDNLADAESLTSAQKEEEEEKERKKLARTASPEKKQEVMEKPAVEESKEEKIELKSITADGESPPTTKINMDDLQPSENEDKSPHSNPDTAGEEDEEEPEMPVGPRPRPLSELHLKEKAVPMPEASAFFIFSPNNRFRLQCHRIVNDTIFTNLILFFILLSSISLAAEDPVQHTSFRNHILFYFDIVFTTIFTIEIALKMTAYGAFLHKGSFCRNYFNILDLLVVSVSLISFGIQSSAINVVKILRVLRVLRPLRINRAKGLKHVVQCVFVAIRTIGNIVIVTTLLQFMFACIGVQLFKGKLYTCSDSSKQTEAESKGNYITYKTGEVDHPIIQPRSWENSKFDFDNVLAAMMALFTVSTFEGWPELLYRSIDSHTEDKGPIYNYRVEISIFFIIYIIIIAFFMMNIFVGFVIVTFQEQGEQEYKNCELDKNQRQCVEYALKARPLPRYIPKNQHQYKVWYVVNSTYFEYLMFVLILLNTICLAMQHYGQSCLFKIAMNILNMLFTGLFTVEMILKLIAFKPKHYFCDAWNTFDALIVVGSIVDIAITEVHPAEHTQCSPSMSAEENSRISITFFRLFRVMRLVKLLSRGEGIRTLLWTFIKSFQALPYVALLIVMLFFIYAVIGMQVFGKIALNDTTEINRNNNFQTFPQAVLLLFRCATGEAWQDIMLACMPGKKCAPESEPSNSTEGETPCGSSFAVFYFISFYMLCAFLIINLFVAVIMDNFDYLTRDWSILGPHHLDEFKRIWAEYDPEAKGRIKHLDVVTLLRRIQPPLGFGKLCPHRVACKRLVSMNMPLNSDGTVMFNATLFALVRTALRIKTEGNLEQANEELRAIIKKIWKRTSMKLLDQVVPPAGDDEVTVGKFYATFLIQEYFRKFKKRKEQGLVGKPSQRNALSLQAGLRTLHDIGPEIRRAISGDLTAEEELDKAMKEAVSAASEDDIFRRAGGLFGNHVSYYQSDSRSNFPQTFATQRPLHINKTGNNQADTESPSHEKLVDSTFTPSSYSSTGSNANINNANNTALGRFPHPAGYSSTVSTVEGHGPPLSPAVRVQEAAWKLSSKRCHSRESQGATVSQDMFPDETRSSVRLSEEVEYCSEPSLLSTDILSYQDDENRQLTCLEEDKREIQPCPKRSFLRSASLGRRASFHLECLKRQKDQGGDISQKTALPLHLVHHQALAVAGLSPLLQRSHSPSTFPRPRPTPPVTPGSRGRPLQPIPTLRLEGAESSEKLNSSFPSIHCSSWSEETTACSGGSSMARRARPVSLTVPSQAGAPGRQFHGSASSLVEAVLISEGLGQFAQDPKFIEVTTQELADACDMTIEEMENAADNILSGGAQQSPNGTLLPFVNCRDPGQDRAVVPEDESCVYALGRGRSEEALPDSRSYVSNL
Sequence of D(1A) dopamine receptor (P18901 whole entry): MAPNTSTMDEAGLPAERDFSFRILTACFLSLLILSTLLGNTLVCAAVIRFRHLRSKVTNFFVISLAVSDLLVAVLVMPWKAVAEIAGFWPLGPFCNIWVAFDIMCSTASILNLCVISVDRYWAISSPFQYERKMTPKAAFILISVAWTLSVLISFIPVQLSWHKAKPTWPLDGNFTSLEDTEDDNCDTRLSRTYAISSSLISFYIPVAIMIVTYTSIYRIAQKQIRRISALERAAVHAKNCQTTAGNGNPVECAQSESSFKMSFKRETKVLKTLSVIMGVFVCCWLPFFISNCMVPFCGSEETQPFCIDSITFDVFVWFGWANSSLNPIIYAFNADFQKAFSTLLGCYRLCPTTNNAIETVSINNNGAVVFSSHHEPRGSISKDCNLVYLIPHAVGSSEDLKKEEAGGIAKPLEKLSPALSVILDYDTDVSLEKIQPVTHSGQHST
Sequence of 5-hydroxytryptamine receptor 1B (P28564 whole entry): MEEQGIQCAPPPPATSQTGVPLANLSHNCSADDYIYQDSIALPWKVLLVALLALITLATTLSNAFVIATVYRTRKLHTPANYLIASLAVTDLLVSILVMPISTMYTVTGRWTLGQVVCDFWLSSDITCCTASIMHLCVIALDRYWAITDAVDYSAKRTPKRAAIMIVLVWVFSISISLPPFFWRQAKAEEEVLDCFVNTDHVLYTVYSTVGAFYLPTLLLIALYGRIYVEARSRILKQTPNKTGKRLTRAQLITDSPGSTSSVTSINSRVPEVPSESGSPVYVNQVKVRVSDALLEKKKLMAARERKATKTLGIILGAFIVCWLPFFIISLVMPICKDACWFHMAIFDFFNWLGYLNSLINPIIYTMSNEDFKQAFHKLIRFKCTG

In general, IC50 refers to the concentration that gives 50% inhibition. As to `CCCN(c1ccncc1)n1ccc2ccccc21` [BESIPIRDINE], the IC50 was above 20 µM at D(1A) dopamine receptor; above 20 µM at Glutamate NMDA receptor; 410 nM in the test listed under Rattus norvegicus [1]; 1300 nM in test [2]; 1000 nM in test [3]; above 20 µM in [4]. The IC50 was 270 nM in the test listed under Rattus norvegicus [5]; above 100 µM in test [6]; 650 nM in test [7]; 2600 nM in the test filed under Rattus norvegicus [8]; above 20 µM in [9]; below 20 µM in test [10]. In addition, the concentration for half-maximal inhibition (IC50) in the test filed under Rattus norvegicus [11] was 430 nM; in test [12], above 10 µM.

These data come from ChEMBL document CHEMBL1129670, “Synthesis and structure-activity relationships of N-propyl-N-(4-pyridinyl)-1H-indol-1-amine (besipirdine) and related analogs as potential therapeutic agents for Alzheimer's disease” (J Med Chem, 1996).
